# According to patent US20180280385A1, “NINTEDANIB FOR USE IN METHODS FOR THE TREATMENT OF MUSCULAR DYSTROPHY” (Boehringer Ingelheim International GmbH, priority 2017, published 2018):
# How the values were obtained:
# animal model of DMD = conditions: literature (Bizario 2009; Huang 2009; Ito 2013); cited from earlier work
# mdx mice [1] = test: Collagen I expression by western blotting in muscle tissue of mdx mice, 1st study; assay type: in vivo, mouse; conditions: western blot, normalized to alpha-tubulin; versus mdx mice; 60 mg/kg once daily, 4 weeks
# Protocol: The treatment of the mdx mice with nintedanib started at an age of 10 months in the 1st study and at 6 weeks in a 2nd study. Treatment duration was 4 weeks in the 1st study and 7 weeks in the 2nd study. Nintedanib was used at a dose of 60 mg/kg once daily administered intragastrically via gavage in both studies. In the 1st study, 7 mdx mice were treated with nintedanib, 5 mdx mice with the vehicle as placebo and 5 C57Bl6/mice (=wild type=WT) were used as unaffected, untreated control animals. At the end of the 1st study, electrophysiological examinations using electroneurography and electromyography and a histological analysis were performed. In addition, the level of collagen I expression was investigated using western blot in 4 mice of each test group.
# mdx mice [2] = test: Electromyography (percentage of small, medium and large MUAPs) in mdx mice, 1st study; assay type: in vivo, mouse; conditions: mdx mice aged 10 months, 60 mg/kg once daily intragastrically, 4 weeks
# Description: (§1) The mdx mouse is a well characterized and widely used animal model for drug tests for DMD (Bulfield et al., Proc Natl Acad Sci USA 1984, 81, 1189-92). Mdx mice spontaneously develop a pathology resembling aspects of the human disease. They present cycles of degeneration and regeneration in the limb muscles and a progressive degeneration and fibrosis in the diaphragm (Coirault et al., J Appl Physiol 2003, 94, 1744-50). The first wave of degeneration peaks in the fourth week of life. At day 21, muscular lesions can be observed, including myofiber necrosis, leaking myofibers as a consequence of injuries to the sarcolemma, high levels of serum creatine kinase, and the presence of large areas of inflammation, connective tissue, and fat (Collins and Morgan, Int J Exp Pathol 2003, 84, 165-72; Grounds et al., Neurobiol Dis 2008, 31, 1-19). Compulsory physical activity can be applied to exacerbate the muscular degeneration during this phase (De Luca et al., Am J Pathol 2005, 166, 477-89; Grounds et al., Neurobiol Dis 2008, 31, 1-19). The treatment of the mdx mice with nintedanib started at an age of 10 months in the 1st study and at 6 weeks in a 2nd study. […] In the electromyography the percentage of small, medium and large motor unit action potentials (MUAPs) were recorded (Gordon et al., Can J Physiol Pharmacol 2004, 82, 645-661).
# mdx mice [3] = test: Hanging wire test in mdx mice, 2nd study; assay type: in vivo, mouse; conditions: mdx mice from 6 weeks of age, 60 mg/kg once daily intragastrically
# Protocol: The treatment of the mdx mice with nintedanib started at an age of 10 months in the 1st study and at 6 weeks in a 2nd study. Treatment duration was 4 weeks in the 1st study and 7 weeks in the 2nd study. Nintedanib was used at a dose of 60 mg/kg once daily administered intragastrically via gavage in both studies. In the 2nd study, 7 mdx mice were treated with nintedanib, 5 mdx mice with the vehicle as placebo and no WT control was included as unaffected, untreated control animals. At the end of the 2nd study, a hanging wire test was performed. In the 2nd study a so called “hanging wire” test was performed (see section Examples and Experimental Data; Rabl et al., BMC Neurosci 2017, 18, 22). This test can be used to assess global “subacute” muscle function and coordination over time in young and old mdx mice. The longest suspension time (LST) and the “fall and reaches” score (FRS) were recorded before the start of the treatment period and after 7 weeks of treatment with nintedanib. […]
# mdx mice [4] = test: Electroneurography (amplitude of motor evoked potentials / CMAP) in mdx mice, 1st study; assay type: in vivo, mouse; conditions: mdx mice aged 10 months, 60 mg/kg once daily intragastrically, 4 weeks; versus non-treated mdx mice; statistically significant in tibialis anterior
# Description: as §1, with “group of” for “electromyography”, “nintedanib-treated mdx mice, an increase in the amplitude” for “percentage”, “the” for “small, medium and large”, “evoked” for “unit action”, “in all nerves studied was detected in comparison to non-treated mdx mice (FIG. 1A-C). […]” for “(MUAPs) were recorded (Gordon et al., Can J Physiol Pharmacol 2004, 82, 645-661).”
# mdx mice [5] = test: Histological analysis of muscular fibrosis incl. immunofluorescent staining for collagen VI in mdx mice, 1st study; assay type: in vivo, mouse
# Protocol: The treatment of the mdx mice with nintedanib started at an age of 10 months in the 1st study and at 6 weeks in a 2nd study. Treatment duration was 4 weeks in the 1st study and 7 weeks in the 2nd study. Nintedanib was used at a dose of 60 mg/kg once daily administered intragastrically via gavage in both studies.
# In the 1st study, 7 mdx mice were treated with nintedanib, 5 mdx mice with the vehicle as placebo and 5 C57Bl6/mice (=wild type=WT) were used as unaffected, untreated control animals. At the end of the 1st study, electrophysiological examinations using electroneurography and electromyography and a histological analysis were performed. In addition, the level of collagen I expression was investigated using western blot in 4 mice of each test group.
# At the end of the 1st study, the diaphragm from non-treated mdx mice had increased fibrotic tissue areas, compared to WT mice, and inflammatory infiltrates.
# The fibrotic area of the muscles was assessed using immunofluorescent staining for collagen VI (Col VI). 8 photographs from different muscle sections of the quadriceps, tibialis anterior and diaphragm were randomly taken. […] The reduction of 7% by nintedanib treatment was statistically significant (p<0.001) (FIG. 3A).
smiles,measurement,setting,value
Cc1ccc(NC(=O)c2ccc(CN3CCN(C)CC3)cc2)cc1Nc1nccc(-c2cccnc2)n1 [imatinib],efficacy in an animal model of DMD,animal model of DMD,had shown efficacy
"COC(=O)c1ccc2c(c1)NC(=O)/C2=C(\Nc1ccc(N(C)C(=O)CN2CCN(C)CC2)cc1)c1ccccc1 [nintedanib, Nintedanib]",collagen I (Col I) expression in the diaphragm,mdx mice [1],statistically significant decrease
same,collagen I (Col I) expression in the tibialis anterior,mdx mice [1],statistically significant decrease
same,large MUAPs,mdx mice [2],increase
same,percentage of small MUAPs,mdx mice [2],normalized
same,"""fall and reaches"" score (FRS)","mdx mice [3]; 7 week observation period, decreased in vehicle-treated mice",remained nearly constant
same,longest suspension time (LST),mdx mice [3]; after 7 weeks of treatment versus before start,increased
same,"amplitude of the motor evoked potentials (CMAP) in all nerves studied (tibialis anterior, Gastrocnemius, Plantar muscle)",mdx mice [4],increase
same,reduction of mean Col VI-stained fibrotic area of the diaphragma by treatment,"mdx mice [5]; difference to non-treated mdx mice, p<0.001",7%
same,inflammatory infiltrates in the diaphragm (histology),"mdx mice [5]; mdx mice aged 10 months, 60 mg/kg once daily intragastrically, 4 weeks",not observed
same,fibrotic area of the diaphragm (histology),"mdx mice [5]; mdx mice aged 10 months, 60 mg/kg once daily intragastrically, 4 weeks, versus non-treated mdx mice",clearly reduced
same,Col VI staining in tibialis anterior sections,"mdx mice [5]; mdx mice aged 10 months, 60 mg/kg once daily, 4 weeks, non-treated mdx 21.4%, p=0.06, not statistically significant",18.9%
same,Col VI staining in quadriceps sections,"mdx mice [5]; mdx mice aged 10 months, 60 mg/kg once daily, 4 weeks, non-treated mdx 25.4%, p=0.03",23.1%
same,mean fibrotic area stained for Col VI on the diaphragma,"mdx mice [5]; mdx mice aged 10 months, 60 mg/kg once daily, 4 weeks, non-treated mdx 57.8%, p<0.001",50.8%
